Columns and labels:
[1] = parameters: method as in PMID 31668946; settings: whole-body PET imaging, mice; cited from earlier work
epichaperomes = test: In vivo target-drug unbinding kinetics taken from Phase 2 tumor pharmacokinetics; parameters: species or system mouse
Procedure: Figure 1 Biodistribution of zelavespib in MDA-MB-468 tumor-bearing mice. (a) Biodistribution of [^124I]-Zelavespib in MDA-MB-468 tumors, organs, tissues, and plasma as per ref. [32]. Data are presented as means ± s.d., five mice per time point. Curves for blood, lung, heart, muscle, bone, and brain were fitted using a one-phase decay equation, and kinetics of zelavespib clearance were determined. Tumor curve was fitted to a two-phase exponential decay. k, kfast, and kslow are the rate constants. Half-life (T1/2) is computed as ln(2)/k. […] (b) Illustrative schematic showing the distinct binding kinetics of zelavespib to epichaperomes (slow off-rate) and to chaperone assemblies (fast off-rate). The tumor pharmacokinetics profile recorded in the Phase 2 interval may represent a direct reflection of the in vivo kinetics of target–drug unbinding. koff, kinetic rate constant for dissociation of an epichaperome-zelavespib assembly. Rt, retention time. […]

Structure (SMILES): CC(C)NCCCn1c(Sc2cc3c(cc2I)OCO3)nc2c(N)ncnc21 [zelavespib]
- T1/2 in MDA-MB-468 tumors [1]: approximately 60 h
- Rt = 1/koff (retention time) (epichaperomes; epichaperome-zelavespib assembly): 67.56 h
- koff, dissociation of epichaperome-zelavespib assembly (epichaperomes; taken as k of tumor Phase 2): 4.11e-06 s⁻¹
